Measured values published in US10329302B2, “Bicyclic-fused heteroaryl or aryl compounds” (Pfizer Inc., priority 2014, dated 2019).

The compounds below were run against human IRAK4 kinase domain (aa 154-460) (Homo sapiens (Human), UniProt Q9NWZ3) (assay: IRAK4 Enzymatic DELFIA Assay, Protocol B). Details: human IRAK4 kinase domain (aa 154-460), 0.6 mM ATP (KM); read-out: IRAK4 DELFIA Protocol B IC50.
Format: biochemical
From the text: IRAK4 Enzymatic DELFIA Assay, Protocol B.

Chain of human IRAK4 kinase domain (aa 154-460) (Q9NWZ3 154-460): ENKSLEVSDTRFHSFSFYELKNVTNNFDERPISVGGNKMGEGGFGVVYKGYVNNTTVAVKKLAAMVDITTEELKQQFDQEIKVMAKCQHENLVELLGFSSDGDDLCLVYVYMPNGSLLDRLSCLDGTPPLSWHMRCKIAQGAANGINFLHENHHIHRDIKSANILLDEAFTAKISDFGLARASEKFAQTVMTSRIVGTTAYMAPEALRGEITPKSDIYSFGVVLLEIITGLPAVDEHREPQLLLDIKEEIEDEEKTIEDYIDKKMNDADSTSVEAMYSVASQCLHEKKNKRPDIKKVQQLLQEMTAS

In order of rising IC50:
1. CC(C)Oc1cc2c(OC[C@H]3CNC(=O)O3)ccnc2cc1C(N)=O [Example 57, 4-{[(5R)-2-oxo-1,3-oxazolidin-5-yl]methoxy}-6-(propan-2-yloxy)quinoline-7-carboxamide]  5.8 nM
2. CC(C)Oc1cc2c(OC[C@]34CNC[C@H]3C4)nccc2cc1C(N)=O [Example 40, 1-[(1S,5S)-3-azabicyclo[3.1.0]hex-1-ylmethoxy]-7-(propan-2-yloxy)isoquinoline-6-carboxamide]  109 nM
3. CC(C)Oc1cc2c(OCC3(C)CCCNC3)ccnc2cc1C(N)=O (stereo not drawn) [Example 58, 4-[(3-methylpiperidin-3-yl)methoxy]-6-(propan-2-yloxy)quinoline-7-carboxamide]  144 nM
4. CC(C)Oc1cc2c(OC[C@H]3[C@@H]4CNC[C@@H]43)nccc2cc1C(N)=O [Example 42, 1-[(1R,5S,6r)-3-azabicyclo[3.1.0]hex-6-ylmethoxy]-7-(propan-2-yloxy)isoquinoline-6-carboxamide]  219 nM
5. CC(C)Oc1cc2c(OC[C@H]3CNC[C@@H]3C(F)(F)F)nccc2cc1C(N)=O [Example 46, 7-(propan-2-yloxy)-1-{[(3R,4R)-4-(trifluoromethyl)pyrrolidin-3-yl]methoxy}isoquinoline-6-carboxamide]  237 nM
6. CC(C)Oc1cc2c(OCC3CCCNC3)ccnc2cc1C(N)=O (stereo not drawn) [Example 59, 4-(piperidin-3-ylmethoxy)-6-(propan-2-yloxy)quinoline-7-carboxamide]  243 nM
7. CC(C)Oc1cc2c(OC[C@H]3CCCN3C(=O)CC#N)nccc2cc1C(N)=O [Example 61, 1-{[(2R)-1-(cyanoacetyl)pyrrolidin-2-yl]methoxy}-7-(propan-2-yloxy)isoquinoline-6-carboxamide]  249 nM
8. CC(C)Oc1cc2c(OC[C@@H]3CCCN3C(=O)CC#N)nccc2cc1C(N)=O [Example 63, 1-{[(2S)-1-(cyanoacetyl)pyrrolidin-2-yl]methoxy}-7-(propan-2-yloxy)isoquinoline-6-carboxamide]  252 nM
9. CC(C)Oc1cc2c(OC[C@H]3CCN(C(=O)CC#N)C3)nccc2cc1C(N)=O [Example 66, 1-{[(3S)-1-(cyanoacetyl)pyrrolidin-3-yl]methoxy}-7-(propan-2-yloxy)isoquinoline-6-carboxamide]  255 nM
10. CC(C)Oc1cc2c(OC[C@@]3(C)CNC[C@@H]3C)ccnc2cc1C(N)=O [Example 55, 4-{[(3R,4R)-3,4-dimethylpyrrolidin-3-yl]methoxy}-6-(propan-2-yloxy)quinoline-7-carboxamide]  264 nM
11. CC(C)Oc1cc2c(O[C@@H]3C[C@H]4C[C@@H]3CN(C(=O)CC#N)C4)nccc2cc1C(N)=O [Example 68, 1-{[(1R,5R,6R)-3-(cyanoacetyl)-3-azabicyclo[3.2.1]oct-6-yl]oxy}-7-(propan-2-yloxy)isoquinoline-6-carboxamide]  320 nM
12. CC(C)Oc1cc2c(OC[C@@H]3CCCNC3)nccc2cc1C(N)=O [Example 48, 1-[(3R)-piperidin-3-ylmethoxy]-7-(propan-2-yloxy)isoquinoline-6-carboxamide]  366 nM
13. CC(C)Oc1cc2c(OC[C@@H]3CCN(C(=O)CC#N)C3)nccc2cc1C(N)=O [Example 70, 1-{[(3R)-1-(cyanoacetyl)pyrrolidin-3-yl]methoxy}-7-(propan-2-yloxy)isoquinoline-6-carboxamide]  423 nM
14. CC(C)Oc1cc2c(OC[C@H]3CCNC3)nccc2cc1C(N)=O [Example 49, 7-(propan-2-yloxy)-1-[(3S)-pyrrolidin-3-ylmethoxy]isoquinoline-6-carboxamide]  451 nM
15. CC(C)Oc1cc2c(OCC3(NC(=O)CC#N)CCCC3)nccc2cc1C(N)=O [Example 65, 1-({1-[(cyanoacetyl)amino]cyclopentyl}methoxy)-7-(propan-2-yloxy)isoquinoline-6-carboxamide]  563 nM
16. CC(C)Oc1cc2c(OC[C@H]3COCCN3C(=O)CC#N)nccc2cc1C(N)=O [Example 64, 1-{[(3R)-4-(cyanoacetyl)morpholin-3-yl]methoxy}-7-(propan-2-yloxy)isoquinoline-6-carboxamide]  641 nM
17. CC(C)Oc1cc2c(OC[C@H]3CCNC3)ccnc2cc1C(N)=O [Example 50, 6-(propan-2-yloxy)-4-[(3S)-pyrrolidin-3-ylmethoxy]quinoline-7-carboxamide]  701 nM
18. CC(C)Oc1cc2c(OCC3CCN(C(=O)CC#N)CC3)nccc2cc1C(N)=O [Example 62, 1-{[1-(cyanoacetyl)piperidin-4-yl]methoxy}-7-(propan-2-yloxy)isoquinoline-6-carboxamide]  1290 nM
19. CC(C)Oc1cc2c(OCC3(C)CCNCC3)ccnc2cc1C(N)=O [Example 56, 4-[(4-methylpiperidin-4-yl)methoxy]-6-(propan-2-yloxy)quinoline-7-carboxamide]  1490 nM
20. CC(C)Oc1cc2c(OC[C@@H]3CCCN(C(=O)CC#N)C3)nccc2cc1C(N)=O [Example 67, 1-{[(3R)-1-(cyanoacetyl)piperidin-3-yl]methoxy}-7-(propan-2-yloxy)isoquinoline-6-carboxamide]  1730 nM
21. CC(C)Oc1cc2c(OCC3CCCN(C)C3)nccc2cc1C(N)=O (stereo not drawn) [Example 45, 1-[(1-methylpiperidin-3-yl)methoxy]-7-(propan-2-yloxy)isoquinoline-6-carboxamide]  1920 nM
22. CC(C)Oc1cc2c(OC[C@H]3CCCN3)nccc2cc1C(N)=O [Example 41, 7-(propan-2-yloxy)-1-[(2R)-pyrrolidin-2-ylmethoxy]isoquinoline-6-carboxamide]  2350 nM
23. CC(C)Oc1cc2c(OC[C@H]3CNCCO3)ccnc2cc1C(N)=O [Example 53, 4-[(2R)-morpholin-2-ylmethoxy]-6-(propan-2-yloxy)quinoline-7-carboxamide]  2380 nM
24. CC(C)Oc1cc2c(OC[C@@H]3CNCCO3)ccnc2cc1C(N)=O [Example 51, 4-[(2S)-morpholin-2-ylmethoxy]-6-(propan-2-yloxy)quinoline-7-carboxamide]  2410 nM
25. CC(C)Oc1cc2c(OCC3(F)CCNCC3)ccnc2cc1C(N)=O [Example 54, 4-[(4-fluoropiperidin-4-yl)methoxy]-6-(propan-2-yloxy)quinoline-7-carboxamide]  2440 nM
26. CC(C)Oc1cc2c(OC3C[C@@H]4CN[C@H]3C4)nccc2cc1C(N)=O (stereo partly drawn) [Example 72, 1-[(1S,4R)-2-azabicyclo[2.2.1]hept-6-yloxy]-7-(propan-2-yloxy)isoquinoline-6-carboxamide]  2620 nM
27. CC(C)Oc1cc2c(OC[C@H]3CNCCO3)nccc2cc1C(N)=O [Example 47, 1-[(2R)-morpholin-2-ylmethoxy]-7-(propan-2-yloxy)isoquinoline-6-carboxamide]  2790 nM
28. CC(C)Oc1cc2c(OCC3CCCCN3)nccc2cc1C(N)=O (stereo not drawn) [Example 43, 1-(piperidin-2-ylmethoxy)-7-(propan-2-yloxy)isoquinoline-6-carboxamide]  3320 nM
29. CC(C)Oc1cc2c(OC3CCC34CCNCC4)ccnc2cc1C(N)=O (stereo not drawn) [Example 52, 4-(7-azaspiro[3.5]non-1-yloxy)-6-(propan-2-yloxy)quinoline-7-carboxamide]  4240 nM
30. CC(C)Oc1cc2c(OCC3CN(C)CCO3)nccc2cc1C(N)=O (stereo not drawn) [Example 44, 1-[(4-methylmorpholin-2-yl)methoxy]-7-(propan-2-yloxy)isoquinoline-6-carboxamide]  4260 nM
